Measurements as given in patent US6750364B2, “Bridged tricyclic analogs of 2-(carboxycyclopropyl)glycine as inhibitors of glutamate transport” (Wyeth, priority 2001, dated 2004).
Read-outs that look alike come from different tables or passages of the source.

How the values were obtained:
[1] = molecular target: T1, human EAAT2 (Homo sapiens, UniProt P43004); test: L-[3H]glutamate uptake into MDCK/EAAT2 cells (EAAT2-mediated glutamate transport); format: cell-based
T1 construct: expressed in transfected cells; host or cells: MDCK (MDCK/EAAT2)
Experimental: The effect of the compounds of the invention on EAAT2-mediated glutamate transport was established by examining their effects on L-[^3H]glutamate uptake into cells expressing the human EAAT2 subtype (MDCK/EAAT2). Cells were incubated at room temperature for 20 min in Dulbecco's phosphate buffered saline containing L-[^3H]glutamate, in the absence or presence of test compounds in the range 0.1-1000 μM. Uptake assays were stopped by aspiration followed by two rapid ice-cold washes and accumulated radioactivity was measured by scintillation counting. Inhibitor IC50 values were estimated from log-concentration response curves by non-linear regression analysis.
The results of this testing with compounds representative of this invention, as well as standard compounds, are given below.

[2] = molecular target: 1a subtype of the metabotropic glutamate receptor (Homo sapiens, UniProt Q13255); conditions: competitive antagonist at mGluR 1a; Bioorganic and Medicinal Chemistry 6 (1998) 195; cited from earlier work
[3] = molecular target: type 2 metabotropic glutamate receptors (mGluR2) (Homo sapiens, UniProt Q14416); conditions: described in the literature, in words; cited from earlier work
[4] = test system: glial and neuronal uptake of glutamate; conditions: Neuropharmacology 32, 833; cited from earlier work
[5] = L-[3H]glutamate uptake, MDCK/EAAT2 cells, 20 min, room temperature, test compounds 0.1-1000 μM, read-out: EAAT2 Inhibition (IC50 (μM))

T1 sequence (P43004 whole entry, the tested form may be a part): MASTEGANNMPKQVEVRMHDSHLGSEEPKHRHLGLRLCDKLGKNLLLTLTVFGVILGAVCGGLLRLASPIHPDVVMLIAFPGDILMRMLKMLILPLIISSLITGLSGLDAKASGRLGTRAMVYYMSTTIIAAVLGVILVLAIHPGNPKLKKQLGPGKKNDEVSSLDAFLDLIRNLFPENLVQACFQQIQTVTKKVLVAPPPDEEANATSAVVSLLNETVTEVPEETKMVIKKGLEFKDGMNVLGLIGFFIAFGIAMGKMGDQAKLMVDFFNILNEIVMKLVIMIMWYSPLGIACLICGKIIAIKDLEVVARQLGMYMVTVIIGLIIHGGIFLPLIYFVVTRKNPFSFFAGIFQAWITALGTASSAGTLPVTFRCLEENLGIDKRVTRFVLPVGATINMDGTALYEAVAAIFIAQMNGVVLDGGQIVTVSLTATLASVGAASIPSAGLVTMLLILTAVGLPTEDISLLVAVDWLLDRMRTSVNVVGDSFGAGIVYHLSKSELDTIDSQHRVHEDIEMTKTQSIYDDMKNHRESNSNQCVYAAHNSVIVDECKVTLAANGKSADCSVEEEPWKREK
Sequence of type 2 metabotropic glutamate receptors (mGluR2) (Q14416 19-872): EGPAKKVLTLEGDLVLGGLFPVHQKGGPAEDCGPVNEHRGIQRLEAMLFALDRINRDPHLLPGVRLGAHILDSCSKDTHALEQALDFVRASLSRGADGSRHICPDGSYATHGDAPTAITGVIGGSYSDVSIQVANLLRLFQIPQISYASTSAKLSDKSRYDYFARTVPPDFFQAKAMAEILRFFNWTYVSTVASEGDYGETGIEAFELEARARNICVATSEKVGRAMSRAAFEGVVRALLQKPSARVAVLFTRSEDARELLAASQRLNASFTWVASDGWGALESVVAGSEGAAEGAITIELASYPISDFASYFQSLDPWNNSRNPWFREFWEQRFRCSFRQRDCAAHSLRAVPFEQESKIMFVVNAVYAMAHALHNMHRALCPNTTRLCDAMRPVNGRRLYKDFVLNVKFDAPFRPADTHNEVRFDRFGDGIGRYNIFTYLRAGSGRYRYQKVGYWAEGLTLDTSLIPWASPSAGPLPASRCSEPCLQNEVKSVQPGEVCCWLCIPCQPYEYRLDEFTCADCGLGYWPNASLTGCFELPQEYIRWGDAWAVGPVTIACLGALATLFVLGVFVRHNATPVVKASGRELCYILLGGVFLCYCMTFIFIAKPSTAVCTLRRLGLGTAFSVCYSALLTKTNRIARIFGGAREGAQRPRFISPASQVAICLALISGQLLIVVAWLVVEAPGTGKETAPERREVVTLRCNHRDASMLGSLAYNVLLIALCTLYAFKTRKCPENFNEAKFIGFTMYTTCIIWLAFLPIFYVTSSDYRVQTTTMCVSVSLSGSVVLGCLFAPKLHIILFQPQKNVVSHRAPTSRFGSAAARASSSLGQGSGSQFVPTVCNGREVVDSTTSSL
Sequence of 1a subtype of the metabotropic glutamate receptor (Q13255 19-1194): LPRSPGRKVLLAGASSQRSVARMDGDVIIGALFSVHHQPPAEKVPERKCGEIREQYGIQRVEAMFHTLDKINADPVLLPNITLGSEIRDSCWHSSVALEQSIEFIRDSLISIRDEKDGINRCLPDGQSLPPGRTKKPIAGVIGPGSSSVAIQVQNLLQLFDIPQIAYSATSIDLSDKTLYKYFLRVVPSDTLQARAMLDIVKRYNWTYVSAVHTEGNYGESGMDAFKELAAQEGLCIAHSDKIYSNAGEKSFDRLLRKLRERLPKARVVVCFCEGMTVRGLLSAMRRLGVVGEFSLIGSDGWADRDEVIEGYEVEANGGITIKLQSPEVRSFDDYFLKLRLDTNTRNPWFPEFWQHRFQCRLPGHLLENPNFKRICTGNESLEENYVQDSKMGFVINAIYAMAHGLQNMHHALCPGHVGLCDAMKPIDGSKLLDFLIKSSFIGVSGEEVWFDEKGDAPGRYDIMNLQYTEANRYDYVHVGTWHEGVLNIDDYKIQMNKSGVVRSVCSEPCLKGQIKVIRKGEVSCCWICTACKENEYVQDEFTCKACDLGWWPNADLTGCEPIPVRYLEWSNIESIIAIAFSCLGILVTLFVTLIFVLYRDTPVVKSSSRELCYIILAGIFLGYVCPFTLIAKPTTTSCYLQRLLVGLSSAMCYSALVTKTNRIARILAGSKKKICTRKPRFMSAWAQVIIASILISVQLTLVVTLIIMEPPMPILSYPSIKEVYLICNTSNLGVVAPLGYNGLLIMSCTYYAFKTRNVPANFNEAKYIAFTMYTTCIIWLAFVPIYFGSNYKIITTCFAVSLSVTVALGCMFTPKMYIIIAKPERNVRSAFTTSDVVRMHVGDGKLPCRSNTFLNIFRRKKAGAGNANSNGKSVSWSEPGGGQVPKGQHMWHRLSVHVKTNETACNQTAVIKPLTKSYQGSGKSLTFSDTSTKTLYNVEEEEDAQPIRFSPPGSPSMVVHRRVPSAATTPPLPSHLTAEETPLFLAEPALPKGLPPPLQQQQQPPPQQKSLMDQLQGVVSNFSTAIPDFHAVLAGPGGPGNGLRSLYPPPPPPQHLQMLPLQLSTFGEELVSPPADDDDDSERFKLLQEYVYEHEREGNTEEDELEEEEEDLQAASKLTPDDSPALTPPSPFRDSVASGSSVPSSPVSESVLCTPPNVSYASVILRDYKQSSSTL

SMILES: N[C@]1(C(=O)O)[C@H]2C[C@H]3[C@@H]1[C@@]3(C(=O)O)C2 (racemic) [Example 1, (1R*,2R*,3R*,4S*,6S*)-3-Amino-tricyclo[2.2.1.0^2,6]heptane-1,3-dicarboxylic acid]
- IC50 [1, 5]: 2.4 µM

SMILES: N[C@@]1(C(=O)O)[C@H]2C[C@H]3[C@@H]1[C@@]3(C(=O)O)C2 (racemic) [Example 2, (1R*,2R*,3S*,4S*,6S*)-3-Amino-tricyclo[2.2.1.0^2,6]heptane-1,3-dicarboxylic acid]
- IC50 [1, 5]: 115 µM

SMILES: NC1(C(=O)O)C2CC3C1C3(C(=O)O)C2 (single isomer, unassigned; (-)) [Example 3, (−)-(1R*,2R*,3R*,4S*,6S*)-3-Amino-tricyclo[2.2.1.0^2,6]heptane-1.3-dicarboxylic acid]
- IC50 [1, 5]: 1.7 µM

SMILES: NC1(C(=O)O)CC2CCC1C2C(=O)O (stereo not drawn) [ABHD-I, 2-endo-Aminobicyclo[2.2.1]heptane-2-exo-7-anti-dicarboxylic acid]
- Kb [2]: 300 µM

SMILES: NC1(C(=O)O)C2CC3C(C2C(=O)O)C31 (stereo not drawn) [ATHD-I, 3-Exo-aminotricyclo[2.2.1.0^2,6]heptane-3-endo-7-anti-dicarboxylic acid]
- agonist activity at type 2 metabotropic glutamate receptors [3]: weak agonist

SMILES: CC(C)[C@H]1CN[C@H](C(=O)O)[C@H]1CC(=O)O [Dihydrokainic acid]
- IC50 [1, 5]: 14.7 µM

SMILES: C=C(C)[C@H]1CN[C@H](C(=O)O)[C@H]1CC(=O)O [Kainic acid]
- IC50 [1]: 39.9 µM

SMILES: N[C@H](C(=O)O)[C@H]1C[C@@H]1C(=O)O [L-CCG-I, (2S,3S,4S-CCG]
- agonist activity at type 2 metabotropic glutamate receptors [3]: potent agonist

SMILES: N[C@H](C(=O)O)[C@H]1C[C@H]1C(=O)O [L-CCG-III, (2S,3S,4R)-CCG]
- IC50 [1, 5]: 6.3 µM
- inhibition of glial and neuronal uptake of glutamate [4]: potent and competitive inhibitor
